Experimental data as given in patent publication US20250082570A1, “COMBINATION THERAPY FOR TREATING NON-TUBERCULOUS MYCOBACTERIAL LUNG DISEASE” (priority 2021, published 2025).
Like-named read-outs stand apart in the source and are kept apart here.

Tested on: M abscessus ATCC 19977 Type strain
Experiment: checkerboard minimum inhibitory concentration (MIC) assay with FICI calculation
Format: cell-based
Details: for MIC: 168 h; for Active Agent-Y MIC Combination: MIC of the labelled Antiinfective-Y in combination with amikacin; for Definition (interpretation of FICI) / FICI (Fractional Inhibitory Concentration Index): labelled Antiinfective-Y in combination with amikacin
[1] = read-out: Active Agent-Y MIC Alone
[2] = Antiinfective-Y alone, M abscessus ATCC 19977, 37° C., 7 days, absorbance 595 nm, read-out: Active Agent-Y MIC Alone

With COc1c(N2C[C@@H]3CCCN[C@@H]3C2)c(F)cc2c(=O)c(C(=O)O)cn(C3CC3)c12 [Moxifloxacin] the MIC [1] was 1 µg/mL, the “Active Agent-Y MIC Combination” value (M abscessus ATCC 19977, 7 days) was 0.125 µg/mL and the “Definition (interpretation of FICI)” value (M abscessus ATCC 19977) was “Synergy (<0.5)”. For the same molecule, the “FICI (Fractional Inhibitory Concentration Index)” value (M abscessus ATCC 19977) was 0.38.

In the case of C[C@@H](O)[C@H]1C(=O)N2C(C(=O)O)=C(SCCN=CN)C[C@H]12 [Imipenem], the MIC [2] was 2 µg/mL, the “Active Agent-Y MIC Combination” value (M abscessus ATCC 19977, 7 days) was 0.25 µg/mL and the “Definition (interpretation of FICI)” value (M abscessus ATCC 19977) was “Synergy (<0.5)”. The “FICI (Fractional Inhibitory Concentration Index)” value (M abscessus ATCC 19977) was 0.38.

With C[C@@H](O)[C@H]1C(=O)N2C(C(=O)[O-])=C(SC3Cn4cnc[n+]4C3)[C@H](C)[C@H]12 (some centres unmarked) [Biapenem] the MIC [2] was 8 µg/mL, the “Active Agent-Y MIC Combination” value (M abscessus ATCC 19977, 7 days) was 0.0625 µg/mL and the “Definition (interpretation of FICI)” value (M abscessus ATCC 19977) was “Synergy (<0.5)”. For the same molecule, the “FICI (Fractional Inhibitory Concentration Index)” value (M abscessus ATCC 19977) was 0.07.

For CN(C)c1cc(NC(=O)CNC(C)(C)C)c(O)c2c1C[C@H]1C[C@H]3[C@H](N(C)C)C(O)=C(C(N)=O)C(=O)[C@@]3(O)C(O)=C1C2=O [Tigecycline], the MIC [1] was 2 µg/mL, the “Active Agent-Y MIC Combination” value (M abscessus ATCC 19977, 7 days) was 0.5 µg/mL and the “Definition (interpretation of FICI)” value (M abscessus ATCC 19977) was “Additive”. The “FICI (Fractional Inhibitory Concentration Index)” value (M abscessus ATCC 19977) was 0.75.

With NCC[C@H](O)C(=O)N[C@@H]1C[C@H](N)[C@@H](O[C@H]2O[C@H](CN)[C@@H](O)[C@H](O)[C@H]2O)[C@H](O)[C@H]1O[C@H]1O[C@H](CO)[C@@H](O)[C@H](N)[C@H]1O [Amikacin] the MIC (amikacin alone (column 12 of the checkerboard plate run with the row's Antiinfective-Y), M abscessus ATCC 19977, 37° C., 7 days, absorbance 595 nm, read-out: Amikacin (Active Agent-X) MIC Alone) was 2 µg/mL and the “Amikacin (Active Agent-X) MIC Alone” value (amikacin alone (column 12 of the checkerboard plate run with the row's Antiinfective-Y), M abscessus ATCC 19977, 37° C., 7 days, absorbance 595 nm) was 1 µg/mL.

For CC[C@@H](CO)NCCN[C@@H](CC)CO [Ethambutol], the MIC [1] was 16 µg/mL, the “Active Agent-Y MIC Combination” value (M abscessus ATCC 19977, 7 days) was 4 µg/mL and the “Definition (interpretation of FICI)” value (M abscessus ATCC 19977) was “Synergy (<0.5)”. The “FICI (Fractional Inhibitory Concentration Index)” value (M abscessus ATCC 19977) was 0.38.

CN[C@H](CC(C)C)C(=O)N[C@H]1C(=O)N[C@@H](CC(N)=O)C(=O)N[C@H]2C(=O)N[C@H]3C(=O)N[C@H](C(=O)N[C@H](C(=O)O)c4cc(O)cc(O)c4-c4cc3ccc4O)[C@H](O)c3ccc(c(Cl)c3)Oc3cc2cc(c3O[C@@H]2O[C@H](CO)[C@@H](O)[C@H](O)[C@H]2O[C@H]2C[C@](C)(N)[C@H](O)[C@H](C)O2)Oc2ccc(cc2Cl)[C@H]1O [Vancomycin] was tested, and the MIC [1] was 4 µg/mL, the “Active Agent-Y MIC Combination” value (M abscessus ATCC 19977, 7 days) was 1 µg/mL and the “Definition (interpretation of FICI)” value (M abscessus ATCC 19977) was “Additive”. The “FICI (Fractional Inhibitory Concentration Index)” value (M abscessus ATCC 19977) was 0.50.

In the case of C[C@H]1COc2c(N3CCN(C)CC3)c(F)cc3c(=O)c(C(=O)O)cn1c23 [Levofloxacin], the MIC [1] was 4 µg/mL, the “Active Agent-Y MIC Combination” value (M abscessus ATCC 19977, 7 days) was 0.0625 µg/mL and the “Definition (interpretation of FICI)” value (M abscessus ATCC 19977) was “Synergy (<0.5)”. For the same molecule, the “FICI (Fractional Inhibitory Concentration Index)” value (M abscessus ATCC 19977) was 0.14.

For CO[C@H]1/C=C/O[C@@]2(C)Oc3c(C)c(O)c4c(O)c(c(/C=N/N5CCN(C)CC5)c(O)c4c3C2=O)NC(=O)/C(C)=C\C=C\[C@H](C)[C@H](O)[C@@H](C)[C@@H](O)[C@@H](C)[C@H](OC(C)=O)[C@@H]1C [Rifampicin], the MIC [1] was 8 µg/mL, the “Active Agent-Y MIC Combination” value (M abscessus ATCC 19977, 7 days) was 0.5 µg/mL and the “Definition (interpretation of FICI)” value (M abscessus ATCC 19977) was “Synergy (<0.5)”. For the same molecule, the “FICI (Fractional Inhibitory Concentration Index)” value (M abscessus ATCC 19977) was 0.31.

In the case of COc1nc2ccc(Br)cc2cc1[C@@H](c1ccccc1)[C@@](O)(CCN(C)C)c1cccc2ccccc12 [Bedaquiline], the MIC [1] was 2 µg/mL, the “Active Agent-Y MIC Combination” value (M abscessus ATCC 19977, 7 days) was 0.125 µg/mL and the “Definition (interpretation of FICI)” value (M abscessus ATCC 19977) was “Synergy (<0.5)”. The “FICI (Fractional Inhibitory Concentration Index)” value (M abscessus ATCC 19977) was 0.09.

For Cn1nnc(-c2ccc(-c3ccc(N4C[C@H](CO)OC4=O)cc3F)cn2)n1 [Tedizolid], the MIC [2] was 0.5 µg/mL, the “Active Agent-Y MIC Combination” value (M abscessus ATCC 19977, 7 days) was 0.5 µg/mL and the “Definition (interpretation of FICI)” value (M abscessus ATCC 19977) was “Additive”. For the same molecule, the “FICI (Fractional Inhibitory Concentration Index)” value (M abscessus ATCC 19977) was 3.00.

With C[C@@H](O)[C@H]1C(=O)N2C(C(=O)O)=C(SC3CN(C4=NCCS4)C3)[C@H](C)[C@H]12 [Tebipenem] the MIC [2] was 8 µg/mL, the “Active Agent-Y MIC Combination” value (M abscessus ATCC 19977, 7 days) was 0.25 µg/mL and the “Definition (interpretation of FICI)” value (M abscessus ATCC 19977) was “Synergy (<0.5)”. For the same molecule, the “FICI (Fractional Inhibitory Concentration Index)” value (M abscessus ATCC 19977) was 0.28.

In the case of CC(C)/N=c1\cc2n(-c3ccc(Cl)cc3)c3ccccc3nc-2cc1Nc1ccc(Cl)cc1 [Clofazimine], the MIC [1] was 2 µg/mL, the “Active Agent-Y MIC Combination” value (M abscessus ATCC 19977, 7 days) was 0.0625 µg/mL and the “Definition (interpretation of FICI)” value (M abscessus ATCC 19977) was “Synergy (<0.5)”. The “FICI (Fractional Inhibitory Concentration Index)” value (M abscessus ATCC 19977) was 0.16.

In the case of CO[C@H]1/C=C/O[C@@]2(C)Oc3c(C)c(O)c4c(c3C2=O)C2=NC3(CCN(CC(C)C)CC3)NC2=C(NC(=O)/C(C)=C\C=C\[C@H](C)[C@H](O)[C@@H](C)[C@@H](O)[C@@H](C)[C@H](OC(C)=O)[C@@H]1C)C4=O [Rifabutin], the MIC [2] was 1 µg/mL, the “Active Agent-Y MIC Combination” value (M abscessus ATCC 19977, 7 days) was 0.0625 µg/mL and the “Definition (interpretation of FICI)” value (M abscessus ATCC 19977) was “Synergy (<0.5)”. The “FICI (Fractional Inhibitory Concentration Index)” value (M abscessus ATCC 19977) was 0.31.

For COc1ccc2cc1Oc1ccc(cc1)C[C@H]1c3cc(c(OC)cc3CCN1C)Oc1c(OC)c(OC)cc3c1[C@H](C2)N(C)CC3 [Tetrandrine], the MIC [1] was 64 µg/mL, the “Active Agent-Y MIC Combination” value (M abscessus ATCC 19977, 7 days) was 8 µg/mL and the “Definition (interpretation of FICI)” value (M abscessus ATCC 19977) was “Synergy (<0.5)”. For the same molecule, the “FICI (Fractional Inhibitory Concentration Index)” value (M abscessus ATCC 19977) was 0.25.

C=CC1=C(C(=O)O)N2C(=O)[C@@H](NC(=O)/C(=N\O)c3csc(N)n3)[C@H]2SC1 [Cefdinir] was tested, and the MIC [2] was 8 µg/mL, the “Active Agent-Y MIC Combination” value (M abscessus ATCC 19977, 7 days) was 0.5 µg/mL and the “Definition (interpretation of FICI)” value (M abscessus ATCC 19977) was “Synergy (<0.5)”. The “FICI (Fractional Inhibitory Concentration Index)” value (M abscessus ATCC 19977) was 0.13.

C[C@@H](O)[C@H]1C(=O)N2C(C(=O)O)=C(S[C@@H]3CN[C@H](CNS(N)(=O)=O)C3)[C@H](C)[C@H]12 [Doripenem] was tested, and the MIC [2] was 4 µg/mL, the “Active Agent-Y MIC Combination” value (M abscessus ATCC 19977, 7 days) was 0.25 µg/mL and the “Definition (interpretation of FICI)” value (M abscessus ATCC 19977) was “Synergy (<0.5)”. The “FICI (Fractional Inhibitory Concentration Index)” value (M abscessus ATCC 19977) was 0.31.

CC[C@H]1OC(=O)[C@H](C)[C@@H](O[C@H]2C[C@@](C)(OC)[C@@H](O)[C@H](C)O2)[C@H](C)[C@@H](O[C@@H]2O[C@H](C)C[C@H](N(C)C)[C@H]2O)[C@](C)(OC)C[C@@H](C)C(=O)[C@H](C)[C@@H](O)[C@]1(C)O [Clarithromycin] was tested, and the MIC [2] was 0.5 µg/mL, the “Active Agent-Y MIC Combination” value (M abscessus ATCC 19977, 7 days) was 0.25 µg/mL and the “Definition (interpretation of FICI)” value (M abscessus ATCC 19977) was “Additive”. For the same molecule, the “FICI (Fractional Inhibitory Concentration Index)” value (M abscessus ATCC 19977) was 2.50.

In the case of CC(=O)NC[C@H]1CN(c2ccc(N3CCOCC3)c(F)c2)C(=O)O1 [Linezolid], the MIC [2] was 2 µg/mL, the “Active Agent-Y MIC Combination” value (M abscessus ATCC 19977, 7 days) was 2 µg/mL and the “Definition (interpretation of FICI)” value (M abscessus ATCC 19977) was “Additive”. For the same molecule, the “FICI (Fractional Inhibitory Concentration Index)” value (M abscessus ATCC 19977) was 3.00.
